Source: ChEMBL document CHEMBL4330124, “Discovery of an Orally Available Janus Kinase 3 Selective Covalent Inhibitor” (J Med Chem, 2019)
The source made the active and inactive calls. The rule behind the calls is not given here.

Tests used:
Homo sapiens [1] = organism: Homo sapiens; assay: Inhibition of IL10/JAK/STAT3 signaling in human PBMC assessed as reduction in LPS-induced TNFalpha production at 100 nM preincubated for 2 hrs followed by LPS stimulation measured after 24 hrs by ELISA
PBMC = assay: Effect on IL6-induced MCP1 production in human PBMC at 100 to 6000 nM preincubated for 2 hrs followed by IL6 stimulation measured after 24 hrs by ELISA; format: functional, cell-based
Homo sapiens [2] = organism: Homo sapiens; assay: Inhibition of IL10/JAK/STAT3 signaling in human PBMC assessed as reduction in LPS-induced IL6 production at 100 nM preincubated for 2 hrs followed by LPS stimulation measured after 24 hrs by ELISA
[3] = target: Protein kinase C gamma type (Homo sapiens) (UniProt P05129); assay: Inhibition of PKCgamma (unknown origin) at 1 uM after 60 mins by Z-LYTE assay relative to control
[4] = target: Glycogen synthase kinase-3 beta (Homo sapiens) (UniProt P49841); assay: Inhibition of GSK3beta (unknown origin) at 1 uM after 60 mins by Z-LYTE assay relative to control
[5] = Clearance in ICR mouse at 5 mg/kg, po via gavage by LC/MS/MS analysis; format: ADME, organism-based; conditions: in vivo
[6] = target: Tyrosine-protein kinase BTK (Homo sapiens) (UniProt Q06187); assay: Inhibition of BTK (unknown origin) at 1 uM after 60 mins by Z-LYTE assay
[7] = target: Epidermal growth factor receptor (Homo sapiens) (UniProt P00533); assay: Inhibition of EGFR (unknown origin) at 1 uM after 60 mins by Z-LYTE assay
[8] = target: Protein kinase C alpha type (Homo sapiens) (UniProt P17252); assay: Inhibition of PKCalpha (unknown origin) at 1 uM after 60 mins by Z-LYTE assay relative to control
[9] = target: T1, Tyrosine-protein kinase ITK/TSK (Homo sapiens) (UniProt Q08881); assay: Inhibition of ITK (unknown origin) at 1 uM after 60 mins by Z-LYTE assay
T1 sequence (whole entry): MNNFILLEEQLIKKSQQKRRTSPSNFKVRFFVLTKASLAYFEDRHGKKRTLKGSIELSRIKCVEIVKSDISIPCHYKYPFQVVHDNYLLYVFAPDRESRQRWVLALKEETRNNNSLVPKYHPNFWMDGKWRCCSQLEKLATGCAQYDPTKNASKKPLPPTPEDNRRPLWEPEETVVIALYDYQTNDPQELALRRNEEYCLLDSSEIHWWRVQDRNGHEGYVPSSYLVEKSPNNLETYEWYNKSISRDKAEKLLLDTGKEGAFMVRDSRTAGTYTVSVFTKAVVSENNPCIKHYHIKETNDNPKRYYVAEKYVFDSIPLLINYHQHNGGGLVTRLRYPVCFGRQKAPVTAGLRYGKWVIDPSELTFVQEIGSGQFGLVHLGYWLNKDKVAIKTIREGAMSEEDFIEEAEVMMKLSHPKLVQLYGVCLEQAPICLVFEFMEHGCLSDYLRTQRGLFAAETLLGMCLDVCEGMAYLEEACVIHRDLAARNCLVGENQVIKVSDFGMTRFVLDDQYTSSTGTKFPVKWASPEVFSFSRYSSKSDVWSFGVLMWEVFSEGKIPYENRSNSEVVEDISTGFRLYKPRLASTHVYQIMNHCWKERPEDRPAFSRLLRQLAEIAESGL

Chain of Tyrosine-protein kinase BTK (Homo sapiens) (Q06187 whole entry): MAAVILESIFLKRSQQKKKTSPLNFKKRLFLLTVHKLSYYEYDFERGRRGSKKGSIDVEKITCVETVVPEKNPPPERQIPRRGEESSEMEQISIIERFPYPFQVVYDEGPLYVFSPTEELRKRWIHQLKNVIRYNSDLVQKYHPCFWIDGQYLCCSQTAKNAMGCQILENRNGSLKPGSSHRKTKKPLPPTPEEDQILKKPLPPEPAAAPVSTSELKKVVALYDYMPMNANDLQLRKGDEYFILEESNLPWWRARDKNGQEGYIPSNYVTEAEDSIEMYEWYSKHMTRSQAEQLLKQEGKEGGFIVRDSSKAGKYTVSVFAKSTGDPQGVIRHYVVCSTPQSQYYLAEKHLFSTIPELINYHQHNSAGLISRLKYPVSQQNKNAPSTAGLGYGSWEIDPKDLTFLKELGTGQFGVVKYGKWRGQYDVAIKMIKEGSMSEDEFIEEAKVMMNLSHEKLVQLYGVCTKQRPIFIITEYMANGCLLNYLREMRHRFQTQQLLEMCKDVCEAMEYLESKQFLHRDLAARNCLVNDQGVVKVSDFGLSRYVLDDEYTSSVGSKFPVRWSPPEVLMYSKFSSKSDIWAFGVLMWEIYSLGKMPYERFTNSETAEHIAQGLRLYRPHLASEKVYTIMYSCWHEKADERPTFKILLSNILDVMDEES
Chain of Epidermal growth factor receptor (Homo sapiens) (P00533 whole entry): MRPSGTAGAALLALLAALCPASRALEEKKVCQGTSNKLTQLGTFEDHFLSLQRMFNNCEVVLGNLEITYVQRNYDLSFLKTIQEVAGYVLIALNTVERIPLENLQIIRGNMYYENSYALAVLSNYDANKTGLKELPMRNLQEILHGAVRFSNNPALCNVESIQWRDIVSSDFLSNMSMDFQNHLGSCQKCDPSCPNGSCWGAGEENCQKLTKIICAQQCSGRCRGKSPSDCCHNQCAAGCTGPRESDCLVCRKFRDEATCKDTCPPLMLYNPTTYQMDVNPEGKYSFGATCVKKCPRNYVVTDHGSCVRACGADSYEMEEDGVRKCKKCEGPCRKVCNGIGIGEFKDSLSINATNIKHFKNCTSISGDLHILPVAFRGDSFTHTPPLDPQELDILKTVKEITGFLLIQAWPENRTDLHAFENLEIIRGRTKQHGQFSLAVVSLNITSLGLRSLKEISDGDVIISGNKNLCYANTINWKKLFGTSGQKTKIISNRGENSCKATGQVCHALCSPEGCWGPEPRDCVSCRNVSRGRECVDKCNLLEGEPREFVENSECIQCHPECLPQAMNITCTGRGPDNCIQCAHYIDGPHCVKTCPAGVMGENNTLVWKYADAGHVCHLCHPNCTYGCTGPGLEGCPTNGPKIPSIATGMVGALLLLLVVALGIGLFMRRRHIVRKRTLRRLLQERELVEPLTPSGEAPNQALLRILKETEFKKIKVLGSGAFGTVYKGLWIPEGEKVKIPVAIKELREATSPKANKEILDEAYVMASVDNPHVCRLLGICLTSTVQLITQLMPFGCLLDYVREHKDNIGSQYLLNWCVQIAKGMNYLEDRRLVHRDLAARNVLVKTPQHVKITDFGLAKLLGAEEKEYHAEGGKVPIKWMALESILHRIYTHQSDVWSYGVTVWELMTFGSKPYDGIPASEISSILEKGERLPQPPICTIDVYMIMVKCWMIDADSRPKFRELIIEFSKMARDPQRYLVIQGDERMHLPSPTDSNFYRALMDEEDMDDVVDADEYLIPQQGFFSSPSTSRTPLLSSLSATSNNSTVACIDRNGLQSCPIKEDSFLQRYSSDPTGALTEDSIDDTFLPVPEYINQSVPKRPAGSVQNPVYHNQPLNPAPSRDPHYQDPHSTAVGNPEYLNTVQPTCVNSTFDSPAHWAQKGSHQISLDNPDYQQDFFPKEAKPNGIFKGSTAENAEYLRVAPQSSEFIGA
Chain of Glycogen synthase kinase-3 beta (Homo sapiens) (P49841 whole entry, looked up): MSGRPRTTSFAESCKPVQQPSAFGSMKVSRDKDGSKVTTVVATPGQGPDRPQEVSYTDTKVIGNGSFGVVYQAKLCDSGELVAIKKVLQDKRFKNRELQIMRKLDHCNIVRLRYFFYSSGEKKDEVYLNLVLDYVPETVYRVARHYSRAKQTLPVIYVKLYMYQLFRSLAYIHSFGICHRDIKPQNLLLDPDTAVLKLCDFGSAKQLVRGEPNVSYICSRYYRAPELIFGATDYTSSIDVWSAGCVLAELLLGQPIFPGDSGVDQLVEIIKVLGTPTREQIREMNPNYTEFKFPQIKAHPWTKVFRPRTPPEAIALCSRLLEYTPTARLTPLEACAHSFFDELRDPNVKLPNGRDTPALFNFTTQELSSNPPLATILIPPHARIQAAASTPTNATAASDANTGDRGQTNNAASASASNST

| Structure (SMILES) | inhibition (Homo sapiens [1]) | Activity (PBMC) | inhibition (Homo sapiens [2]) | inhibition [3] | inhibition [4] | CL/F [5] | inhibition [6] | inhibition [7] | inhibition [8] | inhibition [9] |
| --- | --- | --- | --- | --- | --- | --- | --- | --- | --- | --- |
| C=CC(=O)N1C[C@H](Nc2ncnc3[nH]ccc23)CC[C@@H]1C | Active | inactive | Active | – | – | – | – | – | – | – |
| CC(C)(O)C(=O)N1CCN(c2ccc(C(F)(F)F)c(C3=C(c4c[nH]c5ccccc45)C(=O)NC3=O)c2)CC1 | Active | inactive | Active | – | – | – | – | – | – | – |
| C=CC(=O)N1CCN(c2ccc([N+](=O)[O-])c(C3=C(c4c[nH]c5ccccc45)C(=O)NC3=O)c2)CC1 | Active | inactive | Active | > 80% | > 80% | 138 mL/min/kg | Active | Active | > 80% | Active |
